Assay results: ChEMBL document CHEMBL1131797, “4-hydroxy-5,6-dihydro-2H-pyran-2-ones.3. Bicyclic and hetero-aromatic ring systems as 3-position scaffolds to bind to S1' and S2' of the HIV-1 protease enzyme” (Bioorg Med Chem Lett, 1999)

Legend:
[1] = molecular target: T1, Human immunodeficiency virus type 1 protease (Human immunodeficiency virus 1, UniProt Q72874); assay: Inhibitory concentration against human immunodeficiency virus type 1(HIV-1) protease at pH 4.7
CCRF-CEM = assay: Antiviral activity was evaluated against HIV-infected CEM cells; format: functional, cell-based; details: Homo sapiens
[2] = molecular target: T1, Human immunodeficiency virus type 1 protease; assay: Inhibitory activity was evaluated against human immunodeficiency virus type 1(HIV-1) protease at pH 6.2
[3] = molecular target: T1, Human immunodeficiency virus type 1 protease; assay: Inhibitory activity was evaluated against human immunodeficiency virus type 1(HIV-1) protease at pH 4.7

| Compound | IC50 [1] | EC50 (CCRF-CEM) | IC50 [2] | Ki [3] |
| --- | --- | --- | --- | --- |
| CC(C)(C)n1c(SC2=C(O)OC(CCc3ccccc3)(c3ccccc3)CC2=O)nc2ccccc21 (configuration not stated) | 505 nM | 61 µM |  |  |
| CC(C)(C)c1cc2c(cc1SC1=C(O)OC(CCc3ccccc3)(c3ccccc3)CC1=O)CCC2 (configuration not stated) | 9 nM | 22 µM | 130 nM |  |
| CC(C)(C)c1oc2ccccc2c1SC1=C(O)OC(CCc2ccccc2)(c2ccccc2)CC1=O (configuration not stated) | 18 nM | 10 µM | 211 nM |  |
| CC(C)(C)c1c(SC2=C(O)OC(CCc3ccccc3)(c3ccccc3)CC2=O)oc2ccccc12 (configuration not stated) | 11 nM | 31 µM | 210 nM |  |
| Cc1cc(SC2=C(O)O[C@](CCc3ccc(O)cc3)(C(C)C)CC2=O)c(C(C)(C)C)cc1CO |  | 0.5 µM | 1 nM |  |
| O=C1CC(CCc2ccccc2)(c2ccccc2)OC(O)=C1Sc1cccs1 (configuration not stated) | 290 nM | > 73 µM |  |  |
| Cc1ccc(C(C)(C)C)c(SC2=C(O)OC(CCc3ccccc3)(c3ccccc3)CC2=O)c1 (configuration not stated) |  | 46 µM |  |  |
| CC(C)(C)c1cc2c(cc1SC1=C(O)OC(CCc3ccccc3)(c3ccccc3)CC1=O)CCCC2 (configuration not stated) | 28 nM | 33 µM |  |  |
| CC(C)(C)c1c(SC2=C(O)OC(CCc3ccccc3)(c3ccccc3)CC2=O)sc2ccccc12 (configuration not stated) | 7 nM | > 66 µM | 17 nM |  |
| CCc1c(SC2=C(O)OC(CCc3ccccc3)(c3ccccc3)CC2=O)sc2ccccc12 (configuration not stated) | 28 nM | > 65 µM |  |  |
| CC(C)[C@]1(CCc2ccc(O)cc2)CC(=O)C(Sc2sc3ccccc3c2C(C)(C)C)=C(O)O1 |  | 1 µM | < 1 nM | < 0.1 nM |
| O=C1CC(CCc2ccccc2)(c2ccccc2)OC(O)=C1Sc1cc2ccccc2s1 (configuration not stated) | 363 nM | > 100 µM |  |  |
| Cc1ccsc1SC1=C(O)OC(CCc2ccccc2)(c2ccccc2)CC1=O (configuration not stated) | 195 nM | > 100 µM |  |  |
| Cc1c(SC2=C(O)OC(CCc3ccccc3)(c3ccccc3)CC2=O)sc2ccccc12 (configuration not stated) | 74 nM | > 100 µM |  |  |
